Here are results for three compounds from patent publication US4207326A, “Antimicrobial quaternary pyrazole derivatives” (Cilag-Chemie A.G., priority 1979, dated 1980).

The test system of one assay is C. albicans. The assay is described as follows: Antimycotic activity: Minimum Inhibitory Concentration. The format is cell-based, Candida albicans ATCC 10231. Conditions: Candida albicans, pH 5.5, C. albicans, pH 5.5, 37° C., 72 hours, read-out: Minimum Inhibitory Concentrations. On the procedure:
(§1) The antimicrobial activity was determined by inoculation of the test microorganism into suitable growth media containing solutions of the compounds at concentrations of 100, 50, 10, 5, 1.0, 0.5 and 0.1 μg/ml. The reference antibiotics used were Gentamicin for the antibacterial tests and Amphotericin B for the antimycotic and antifungal tests. After incubation the antimicrobial activity was recorded as the Minimal Inhibitory Concentration (M.I.C.), i.e., the lowest concentration preventing macroscopically visible growth, for each test compound against each organism.
(§2) An initial solution of each formula (I) compound to be tested in sterile distilled water was prepared at a concentration of 1000 μg/ml. With appropriate dilutions using sterile distilled water, additional solutions were prepared at concentrations of 500, 100, 50, 10, 5 and 1 μg/ml.
(§3) The two species, C. albicans and C. tropicalis, were maintained on Sabouraud-Dextrose Agar (Oxoid CM41) and cultures for the preparation of the inoculum were incubated on this agar at 37° C. for 48 hours. 4.5 Ml volumes of citric acid-phosphate buffer pH 5.5 plus Yeast-Nitrogen Base (Difco 0392-15) were then inoculated from the agar cultures and incubated at 37° C. for 48 hours. 0.1 Ml aliquots of these cultures were then added to 100 ml volumes of sterile physiological saline to give the final inocula.
(§4) (b) For the tests on each of the C. albicans, C. tropicalis and C. neoformans strains and each of the test and reference compounds, a series of 8 tubes containing 4.5 ml volumes of citric acid-phosphate buffer pH 5.5 plus Yeast-Nitrogen Base (Difco 0392-15) were prepared. To 7 of these were added 0.5 ml volumes of the final solutions of the test compounds, giving final concentrations in the broths of 100, 50, 10, 5, 1.0, 0.5 and 0.1 μg/ml. To the eighth tube in each series was added 0.5 ml of the solvent used and diluted as for the preparation of the 1000 μg/ml solution of the compound. This tube was used as the growth control. The tubes were then inoculated with 0.1 ml aliquots of the inocula prepared as in "(b) Fungi" above. The tubes inoculated with the C. albicans and C. tropicalis were inoculated at 37° C. for 72 hours and the tubes inoculated with the C. neoformans straim were incubated at 30° C. for 72 hours. […] The tubes were then examined for evidence of growth as shown by turbidity of the medium and the lowest concentration of the test compound which prevented fungal growth was recorded as the Minimal Inhibitory Concentration. This test procedure was carried out on two separate days.

In another assay the test system is C. tropicalis. The assay is described as above. The assay is classed as cell-based, Candida tropicalis NCPF 3111. Conditions: Candida tropicalis, pH 5.5, C. tropicalis, pH 5.5, 37° C., 72 hours, read-out: Minimum Inhibitory Concentrations. The procedure: as §1, §2, §3, §4
The next assay concerns C. neoformans. The assay is described as above. The assay is classed as cell-based, Cryptococcus neoformans NCPF 3184. As to conditions: Cryptococcus neoformans, pH 5.5, C. neoformans, pH 5.5, 30° C., 72 hours, read-out: Minimum Inhibitory Concentrations. On the procedure:
as §1, §2
The C. neoformans was also maintained on Sabouraud-Dextrose Agar (Oxoid CM 41), but in this case cultures for the preparation of the inoculum were incubated on this agar at 30° C. for 48 hours. A 4.5 ml volume of citric acid-phosphate buffer pH 5.5 plus Yeast-Nitrogen Base (Difco-0392-15) was then inoculated from the agar culture and incubated at 30° C. for 48 hours. A 0.1 ml aliquot of this culture was then added to 100 ml sterile physiological saline to give the final inoculum.
as §4

Another assay concerns A. fumigatus. Description: Antifungal activity: Minimum Inhibitory Concentration. The assay is classed as cell-based, Aspergillus fimigatus (A. fumigatus) NCPF 2140. Conditions: Aspergillus fumigatus, A. fumigatus, 27° C., one week, read-out: Minimum Inhibitory Concentration. On the procedure:
as §1, §2
(§5) The A. corymbifera, A. fumigatus, S. schenkii, T. rubrum, T. mentagrophytes, M. canis and P. verrucosa strains were all maintained on Sabouraud-Dextrose Agar (Oxoid CM 41) by incubating for 14 days at 27° C. To prepare the inocula 30 ml volumes of Sabouraud-Liquid medium (Oxoid CM 147) were inoculated from the agar cultures and incubated at 27° C. until heavy uniform growth resulted. The mycelial growth was then broken up by shaking with glass beads.
(§6) 1 Ml aliquots were removed from each of the cultures for the purpose of making viable counts and the cultures were then held at 4° C. The viable counts were made by preparing serial ten-fold dilutions of the cultures in sterile physiological saline and spreading on plates of Sabouraud-Dextrose Agar (Oxoid CM 41) which were then incubated at 27° C. for 14 days. When the viable counts had confirmed that each of the inocula contained approximately 10^6 colony forming units (C.F.U.) per ml the cultures were withdrawn from the refrigerator and used as the inocula for the tests.
(§7) (c) For the tests on each of the remaining seven strains and each of the test and reference compounds, a series of 8 tubes containing 4.5 ml volumes of Sabouraud-Liquid Medium (Oxoid CM 147) were prepared. To 7 of these were added 0.5 ml volumes of the final solutions of the test compounds, giving final concentrations in the broths of 100, 50, 10, 5, 1.0, 0.5 and 0.1 μg/ml. To the eighth tube in each series was added 0.5 ml of the solvent used and diluted as for the preparation of the 500 μg/ml solution of the compound. This tube was used as a growth control. The tubes were then inoculated with 0.1 ml aliquots of the inocula prepared as in "(b) Fungi" above. The tubes were then incubated at 27° C. with continuous shaking for a period of one week. The tubes were then examined for evidence of growth as shown by the presence of mycelial growth in the medium and the lowest concentration of the test compound which prevented fungal growth was recorded as the Minimal Inhibitory Concentration. This test procedure was carried out on two separate days.

For a further assay, the system named is P. verrucosa. The description is as above. Conditions: Phialophora verrucosa, P. verrucosa, 27° C., one week, read-out: Minimum Inhibitory Concentration. The assay is classed as cell-based, Phialophore verrucosa NCPF 1119. The procedure: as §1, §2, §5, §6, §7

Structures are written as SMILES. Like-named read-outs stand apart in the source and are kept apart here.

Regarding `CCCCCCCCCCCCCC[n+]1c(C)cc(C)n1Cc1ccc([N+](=O)[O-])cc1.[Br-]` [Example 6-D, 3,5-dimethyl-2(4-nitrobenzyl)-1-tetradecyl-pyrazolium bromide], the MIC in the assay with C. albicans (Day 1) turned out to be 10 µg/mL; with C. albicans (Day 2) it was 5 µg/mL; with C. tropicalis (Day 1) it was 5 µg/mL; with C. tropicalis (Day 2) it was 5 µg/mL; with C. neoformans (Day 1), 0.5 µg/mL; in the assay on C. neoformans (Day 2) it was 0.5 µg/mL. Moreover, the MIC with A. fumigatus (Day 1) was determined as 50 µg/mL; in the assay on A. fumigatus (Day 2), 50 µg/mL; in the assay on P. verrucosa (Day 1) it was 10 µg/mL; with P. verrucosa (Day 2) it was 10 µg/mL.

As for `CCCCCCCCCCCC[n+]1c(C)cc(C)n1Cc1ccc(Cl)cc1.[Br-]` [Example 6-E, 2-(p-chlorobenzyl)-3,5-dimethyl-1-dodecyl-pyrazolium bromide], the MIC in the assay with C. albicans (Day 1) was 1 µg/mL; with C. albicans (Day 2), 5 µg/mL; in the assay on C. tropicalis (Day 1), 5 µg/mL; in the assay with C. tropicalis (Day 2) it was 1 µg/mL; in the assay on C. neoformans (Day 1), 0.5 µg/mL; with C. neoformans (Day 2), 0.5 µg/mL. Besides, the MIC came out at 10 µg/mL in the assay on A. fumigatus (Day 1), 5 µg/mL with A. fumigatus (Day 2), 5 µg/mL in the assay on P. verrucosa (Day 1) and 5 µg/mL in the assay on P. verrucosa (Day 2).

As for `C=CCn1c(C)cc(C)[n+]1CCCCCCCCCCCCCCCC.[Br-]` [Example 7, 2-allyl-3,5-dimethyl-1-hexadecyl-pyrazoliumbromide], the MIC in the assay with C. albicans (Day 1) came out at 5 µg/mL; in the assay on C. albicans (Day 2), 1 µg/mL; with C. tropicalis (Day 1), 0.5 µg/mL; with C. tropicalis (Day 2), 0.5 µg/mL; in the assay with C. neoformans (Day 1), 1 µg/mL; in the assay with C. neoformans (Day 2), 0.5 µg/mL. For the same compound, the MIC was determined as 10 µg/mL with A. fumigatus (Day 1), 50 µg/mL with A. fumigatus (Day 2), 5 µg/mL in the assay with P. verrucosa (Day 1) and 5 µg/mL in the assay with P. verrucosa (Day 2).
